Structures can show the parent of a compound that is named as a salt. Where two headings read alike, the source gives them in different places.
How the values were obtained:
[1] = Body weight in A549 xenograft study (Example 7); type: in vivo; conditions: combination of doxorubicin 2 mg/kg every 2 days and Compound 91 200 mg/kg every day, athymic nude mice
Experimental: A xenograph study was performed using A549 lung cancer cells to interrogate the in vivo synergy between a representative ROS-producing anti-cancer drug and a PKM2 activator. Mice (6-8 week old female athymic nude) were housed under standard conditions, and allowed food and water ad libitum and injected with 1×10^7 A549 cells per mouse. […] Compound 91 was administered orally at a concentration of 200 mg/kg every day.
(§1) Tumor volume and body weights were measured and recorded twice weekly (FIGS. 7A and 7B, respectively). Upon completion of the study, mice were euthanized and tumor tissues were harvested.

[2] = system: A549 cells; test: GSH-Glo glutathione level assay in A549 cells; type: cell-based, human; conditions: treated 48 hours, even at concentrations as low as 0.1 μM
Experimental: Cells were treated for 48 hours, and then glutathione levels were determined using a GSH-Glo assay kit and procedure from Promega.

[3] = system: A549 lung cancer cells; test: A549 xenograft study in athymic nude mice (Example 7), tumor volume; type: in vivo; conditions: combination of doxorubicin 2 mg/kg every 2 days and Compound 91 200 mg/kg every day
Experimental: A xenograph study was performed using A549 lung cancer cells to interrogate the in vivo synergy between a representative ROS-producing anti-cancer drug and a PKM2 activator. Mice (6-8 week old female athymic nude) were housed under standard conditions, and allowed food and water ad libitum and injected with 1×10^7 A549 cells per mouse.
as §1

[4] = system: A549 human lung cancer cells; test: Subcutaneous A549 human lung cancer xenograft model in BALB/c nude mice (Example 8); type: in vivo, Mus musculus; conditions: Group 2: Doxorubicin 2 mg/kg i.v. Q2D × 3 weeks + vehicle p.o.
Experimental: A549 human lung cancer cells were inoculated in BALB/c nude mice and treatment was initiated when tumors reached a mean volume of approximately 100 mm^3.
4.5 Randomization 60 mice were enrolled in the study. All animals were randomly allocated to the 6 different study groups. […] Randomization was performed based on “Matched distribution” randomization method using multi-task method (StudyDirector™ software, version 3.1.399.19) on day 13.
After tumor cell inoculation, the animals were checked daily for morbidity and mortality. At the time of routine monitoring, the animals were checked for any effects of tumor growth and treatments on behavior such as mobility, food and water consumption, body weight gain/loss (body weight was measured twice per week, or based on request after randomization), and any other abnormalities. Mortality and observed clinical signs were recorded for individual animals.
Tumor volumes were measured twice weekly in two dimensions using a caliper, and the volume was expressed in mm^3 using the formula: V=(L×W×W)/2, where V is tumor volume, L is tumor length (the longest tumor dimension) and W is tumor width (the longest tumor dimension perpendicular to L).
Tumor weight was measured at the end of study based on the protocol. Dosing as well as tumor and body weight measurement were conducted in a Laminar Flow Cabinet.
Statistical analysis of differences in mean tumor volume among the groups was conducted by Independent-Samples T Test using the data collected.
All data were analyzed with SPSS (Statistical Product and Service Solutions) version 18.0 (IBM, Armonk, N.Y., U.S.). […] All tests were two-sided. P<0.05 was considered to be statistically significant.

[5] = system: A549 cells; test: Cell-titer-Glo cell viability, A549 cells; type: cell-based, human
[6] = target: PKM2 (Homo sapiens, UniProt P14618); test: PKM2 activation biochemical assay (AC50 / max. response vs fructose 1,6-bisphosphate); conditions: for Max. Resp. (%): % maximum response in a biochemical assay as compared with Fructose 1,6-bisphosphate; for AC50: biochemical assay, read-out: PKM2 AC50
Chain of PKM2 (P14618 whole entry): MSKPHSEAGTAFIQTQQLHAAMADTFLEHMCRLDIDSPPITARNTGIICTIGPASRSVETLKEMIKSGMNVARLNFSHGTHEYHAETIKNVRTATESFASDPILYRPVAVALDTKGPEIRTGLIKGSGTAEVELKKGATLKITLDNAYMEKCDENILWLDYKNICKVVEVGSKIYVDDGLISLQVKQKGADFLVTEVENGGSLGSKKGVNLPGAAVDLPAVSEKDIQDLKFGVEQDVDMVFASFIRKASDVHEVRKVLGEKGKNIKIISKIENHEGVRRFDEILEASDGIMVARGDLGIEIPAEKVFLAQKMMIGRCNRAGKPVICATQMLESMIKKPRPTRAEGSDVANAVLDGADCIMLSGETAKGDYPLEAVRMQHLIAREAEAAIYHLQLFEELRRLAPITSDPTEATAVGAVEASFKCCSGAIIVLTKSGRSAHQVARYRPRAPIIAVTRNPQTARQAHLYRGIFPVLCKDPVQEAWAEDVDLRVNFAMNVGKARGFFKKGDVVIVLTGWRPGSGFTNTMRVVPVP

[7] = system: Panc1 cells; test: Cell-titer-Glo cell viability, Panc1 cells; type: cell-based; conditions: Compound 91 at 4 μM
Experimental: A549 and Pancl cells were plated using 384-well plates at a density of 1,200 cells per well. Cells were plated in RPMI media and allowed to adhere for 24 hours at 37° C. […] Cells were also treated with Compound 91 alone as a control. Cell viability was determined according to the Cell-titer-Glo assay kit and protocol from Promega Biosciences, LLC (Madison, Wis.).
A549 and Panc1 cells were plated according to the procedure described in Example 1. Cells were treated using a concentration gradient of rapamycin (FIGS. 5A-B) or Vosaroxin (a TOPOII poison; FIG. 5C), both in the presence and absence of Compound 91 at a concentration of 4 μM in replicates of 7 per condition. Cell viability was determined using the Cell-titer-Glo assay kit according to the procedure described in the examples above.

[8] = Homo sapiens, A549 cells, anti-cancer drug alone, Cell-titer-Glo, read-out: EC50, cell viability

Max. Resp. (%) [6] [%]	AC50 [6] [nM]	SMILES	also measured
49	2760	O=C(CCSC(=S)NCc1cccnc1)c1ccc([N+](=O)[O-])cc1 [PMA13]	
	> 20000	O=C(CCSC(=S)NCc1cccnc1)c1ccc(OCc2ccccc2)cc1 [PMA15]	
63	11200	COc1ccc(C(=O)CCSC(=S)NCc2cccnc2)cc1 [PMA16]	
23	> 20000	O=C(CCSC(=S)NCc1cccnc1)c1ccc(C(F)(F)F)cc1 [PMA17]	
88	3930	COc1ccccc1C(=O)CCSC(=S)NCc1cccnc1 [PMA18]	
63	5610	O=C(CCSC(=S)NCc1cccnc1)c1ccccc1Cl [PMA19]	
42	> 20000	O=C(CCSC(=S)NCc1cccnc1)c1ccc(F)c(F)c1 [PMA21]	
131	10100	COc1cc(C(=O)CCSC(=S)NCc2cccnc2)cc(OC)c1OC [PMA22]	
107	4300	O=C(CCSC(=S)NCc1cccnc1)c1ccco1 [PMA25]	
20	> 20000	O=C(CCSC(=S)NCc1cccnc1)c1cccs1 [PMA26]	
126	> 20000	O=C(CCSC(=S)NCc1cccnc1)c1ccc[nH]1 [PMA27]	
72	3560	O=C(CCSC(=S)NCc1cccnc1)c1nccs1 [PMA28]	
106	3700	O=C(CCSC(=S)NCc1cccnc1)c1cccnc1 [PMA29]	
	> 20000	O=C(CCSC(=S)NCc1cccnc1)c1c[nH]c2ccccc12 [PMA31]	
182	1000	O=C(CCSC(=S)NCc1cccnc1)c1c[nH]c2ncccc12 [PMA32]	
101	18100	O=C(CCSC(=S)NCc1cccnc1)c1cnc2ccccn12 [PMA33]	
30	4340	O=C(CCSC(=S)NCc1cccnc1)c1cc[nH]c1 [PMA35]	

Continued, compound first:

SMILES	Max. Resp. (%) [6] [%]	AC50 [6] [nM]	also measured
Nc1cccc(F)c1CN(CCC1CCS(=O)(=O)CC1)C(=O)c1cc(C(F)(F)F)n[nH]1 [Compound 91]			body weight [1]: no significant body weight reduction or fluctuation; glutathione levels (GSH-Glo) [2]: decreased levels of glutathione; tumor volume [3]: best reduction of tumor volume
O=S(=O)(c1ccc2c(c1)OCCO2)N1CCN(S(=O)(=O)c2c(F)cccc2F)CC1 [DASA, reference compound]			glutathione levels (GSH-Glo) [2]: decreased levels of glutathione
COc1cccc2c1C(=O)c1c(O)c3c(c(O)c1C2=O)C[C@@](O)(C(=O)CO)C[C@@H]3O[C@H]1C[C@H](N)[C@H](O)[C@H](C)O1 [Doxorubicin, doxorubicin, reference compound]			Tumor Size (mm^3) on day 33 ([4]; Mean ± SEM): 723.15 ± 129.91 mm^3; Tumor Weight (mg) on day 33 ([4]; Mean ± SEM): 676.9 ± 107.8 mg; T/C (%) (tumor size) ([4]; day 33): 93%; T/C (%) (tumor weight) ([4]; day 33): 91%; TGI (%) (tumor size) ([4]; day 33): 7%; TGI (%) (tumor weight) ([4]; day 33): 9%
C=CCNc1c(O)cc2c(O)c1C[C@@H](C)C[C@H](OC)[C@H](O)[C@@H](C)/C=C(\C)[C@H](OC(N)=O)[C@@H](OC)/C=C\C=C(/C)C(=O)N2 [IPI-504, retaspimycin hydrochloride]			EC50 ([5]; Homo sapiens, A549, read-out: EC50, cell viability): 59.9 nM
Cc1ccc2nc(Cn3c(Cc4ccccc4)nc4ccccc43)cc(=O)n2c1 [PP1]	148	3500	
Cc1ccc2nc(Cn3c(C)nc4ccccc43)cc(=O)n2c1 [PP2]	73		
Cc1ccc2nc(Cn3cnc4ccccc43)cc(=O)n2c1 [PP3]	149	755	
O=c1cc(Cn2cnc3ccccc32)nc2ccccn12 [PP4]	161	340	
Cc1cccc2nc(Cn3cnc4ccccc43)cc(=O)n12 [PP8]		159	glutathione levels (GSH-Glo) [2]: decreased levels of glutathione
Cc1ccn2c(=O)cc(Cn3cnc4ccccc43)nc2c1 [PP9]		216	
O=c1cc(Cn2cnc3ccccc32)nc2ccc(Cl)cn12 [PP10]		219	
CCc1ccc(C)n2c(=O)cc(Cn3cnc4ccccc43)nc12 [PP11]		120	
COc1ccc2nc(Cn3cnc4ccccc43)cc(=O)n2c1 [PP12]		470	
Cc1cccn2c(=O)cc(Cn3cnc4ccccc43)nc12 [PP13]		145	
Cc1sc2nc(Cn3cnc4ccccc43)cc(=O)n2c1C [PP14]		86	
O=c1cc(Cn2cnc3ccccc32)nc2scc(-c3ccccc3)n12 [PP15]		1030	
Cc1csc2nc(Cn3cnc4ccccc43)cc(=O)n12 [PP16]		127	
Cc1cn2c(=O)cc(Cn3cnc4ccccc43)nc2s1 [PP17]		466	
O=c1cc(Cn2cnc3ccccc32)nc2sccn12 [PP18]		266	
CCc1nn2c(=O)cc(Cn3cnc4ccccc43)nc2s1 [PP19]		4760	
COc1cccc(NS(=O)(=O)c2cc3c(cc2Cl)NC(=O)CO3)c1 [PP20]	108	153	
CN[C@H]1CN(c2ccc3c(=O)c(C(=O)O)cn(-c4nccs4)c3n2)C[C@@H]1OC [Vosaroxin]			cell viability: activity in presence vs absence of Compound 91 [7]: no significant change; cell viability: activity in presence vs absence of Compound 91 ([5]; A549 cells, Compound 91 at 4 μM, Cell-titer-Glo): no significant change
CC(C)C[C@H](NC(=O)[C@H](Cc1ccccc1)NC(=O)c1cnccn1)B(O)O [bortezomib]			decrease in EC50 when used in combination with Compound 91 ([5]; A549 cells, Compound 91 at 4 μM vs drug alone): ~2 fold; EC50 [5, 8]: 43.4 nM; EC50 ([5]; Homo sapiens, A549 cells, in the presence of Compound 91 at 4 μM, Cell-titer-Glo, read-out: EC50, cell viability, in combination with Compound 91): 27 nM
CNC(=O)c1cc(Oc2ccc(NC(=O)Nc3ccc(Cl)c(C(F)(F)F)c3)cc2)ccn1 [sorafenib]			EC50 ([5]; A549 cells, in the presence of Compound 91 at 4 μM, Cell-titer-Glo, read-out: EC50, cell viability, in combination with Compound 91): 7130 nM; EC50 [5, 8]: 30100 nM

From patent publication US20200237766A1, “PKM2 ACTIVATORS IN COMBINATION WITH REACTIVE OXYGEN SPECIES FOR TREATMENT OF CANCER” (TOLERO PHARMACEUTICALS, INC., priority 2017, published 2020)
